Here are results for 13 compounds from US12398154B2, “Azaquinazoline pan-KRas inhibitors” (Mirati Therapeutics, Inc., priority 2020, dated 2025).

The structures appear in SMILES notation.

As usually defined, the IC50 is the concentration that inhibits the measured activity by half. Low values mean inhibition by little substance, high ones a need for much substance.

One experiment addresses KRas G12V (Homo sapiens, UniProt P01116, G12V). In words: biochemical.
The target of the next experiment is KRas G12S (Homo sapiens, UniProt P01116, G12S). In words: biochemical.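 Note: TR-FRET displacement binding to KRas, read after one hour incubation at room temperature, IC50 from four-parameter fit of percent of control.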
The target in another experiment is KRas G12C (Homo sapiens, UniProt P01116, G12C). Description: biochemical.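 Note: binding to KRas assessed by TR-FRET displacement after one hour incubation at room temperature, potency fitted from percent-of-control values.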
Another experiment deals with KRas G12A (Homo sapiens, UniProt P01116, G12A). In words: biochemical.
Another experiment has as its target T1, KRas G13D (Homo sapiens, UniProt P01116, G13D).
T1 construct: Biotinylated KRas (corresponding to amino acids 1-169, produced at Accelegan Inc.); biotin (biotinylated); purchased Accelegan Inc
In words: KRas binding assay (TR-FRET displacement). In general terms: TR-FRET usually uses a lanthanide donor and a delayed reading to cut background.

Another experiment deals with KRas G12D (Homo sapiens, UniProt P01116, G12D). In words: biochemical.
The next experiment addresses KRas WT (Homo sapiens, UniProt P01116). In words: biochemical.
The next experiment addresses T2, KRas Q61H (Homo sapiens, UniProt P01116, Q61H).
T2 construct: Biotinylated KRas (corresponding to amino acids 1-169, produced at Accelegan Inc.); biotin (biotinylated); purchased Accelegan Inc
Description: KRas binding assay (TR-FRET displacement).

Another experiment addresses KRas G12R (Homo sapiens, UniProt P01116, G12R). Description: biochemical.

T2 sequence (P01116 1-169 isoform P01116-2 Q61H): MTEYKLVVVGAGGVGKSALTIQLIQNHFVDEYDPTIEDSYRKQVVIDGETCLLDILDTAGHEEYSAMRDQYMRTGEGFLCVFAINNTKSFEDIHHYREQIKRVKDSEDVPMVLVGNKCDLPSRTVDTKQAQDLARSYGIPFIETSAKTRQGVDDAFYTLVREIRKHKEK
T1 sequence (P01116 1-169 isoform P01116-2 G13D): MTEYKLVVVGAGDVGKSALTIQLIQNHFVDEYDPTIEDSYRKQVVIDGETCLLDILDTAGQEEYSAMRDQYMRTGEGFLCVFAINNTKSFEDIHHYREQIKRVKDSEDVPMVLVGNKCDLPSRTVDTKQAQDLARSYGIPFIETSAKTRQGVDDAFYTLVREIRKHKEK
KRas G12A, sequence (P01116 1-169 isoform P01116-2 G12A): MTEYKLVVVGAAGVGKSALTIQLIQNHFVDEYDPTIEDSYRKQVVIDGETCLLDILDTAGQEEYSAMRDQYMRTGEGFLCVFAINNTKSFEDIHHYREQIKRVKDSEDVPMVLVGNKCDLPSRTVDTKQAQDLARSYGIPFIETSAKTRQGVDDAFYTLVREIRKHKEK
KRas G12V, sequence (P01116 1-169 isoform P01116-2 G12V): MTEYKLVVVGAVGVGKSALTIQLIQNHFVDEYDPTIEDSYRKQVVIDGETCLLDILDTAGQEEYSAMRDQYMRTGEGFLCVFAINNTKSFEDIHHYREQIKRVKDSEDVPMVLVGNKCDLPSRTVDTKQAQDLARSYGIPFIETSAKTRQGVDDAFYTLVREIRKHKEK
KRas G12D, sequence (P01116 1-169 isoform P01116-2 G12D): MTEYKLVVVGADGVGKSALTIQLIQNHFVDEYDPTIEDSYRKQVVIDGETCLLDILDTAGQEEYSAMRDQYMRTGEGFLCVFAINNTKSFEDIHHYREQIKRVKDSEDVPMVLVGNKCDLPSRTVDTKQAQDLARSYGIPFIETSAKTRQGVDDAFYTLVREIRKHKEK
KRas G12R, sequence (P01116 1-169 isoform P01116-2 G12R): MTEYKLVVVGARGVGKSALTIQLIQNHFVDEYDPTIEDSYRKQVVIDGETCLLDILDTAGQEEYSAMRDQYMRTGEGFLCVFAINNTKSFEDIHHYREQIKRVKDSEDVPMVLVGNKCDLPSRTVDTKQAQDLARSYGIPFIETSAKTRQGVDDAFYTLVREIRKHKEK
KRas G12S, sequence (P01116 1-169 isoform P01116-2 G12S): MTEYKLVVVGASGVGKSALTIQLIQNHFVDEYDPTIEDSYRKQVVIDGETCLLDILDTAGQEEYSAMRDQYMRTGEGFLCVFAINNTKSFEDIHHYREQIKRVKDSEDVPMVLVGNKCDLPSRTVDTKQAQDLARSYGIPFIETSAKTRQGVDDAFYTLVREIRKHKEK
KRas WT, sequence (P01116 1-169 isoform P01116-2): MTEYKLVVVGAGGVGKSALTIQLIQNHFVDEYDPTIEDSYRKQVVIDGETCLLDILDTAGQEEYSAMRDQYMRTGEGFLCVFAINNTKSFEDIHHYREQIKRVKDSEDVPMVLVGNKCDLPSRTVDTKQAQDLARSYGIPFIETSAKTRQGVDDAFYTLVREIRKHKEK
KRas G12C, sequence (P01116 1-169 isoform P01116-2 G12C): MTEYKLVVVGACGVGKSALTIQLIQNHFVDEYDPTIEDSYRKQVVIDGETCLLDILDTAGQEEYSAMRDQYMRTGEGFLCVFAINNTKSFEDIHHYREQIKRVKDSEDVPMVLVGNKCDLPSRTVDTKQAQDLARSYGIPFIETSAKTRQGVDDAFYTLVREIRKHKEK

Consider `CC1(O)COCCN(c2nc(OCC34CCCN3CCC4)nc3c(F)c(-c4cccc5cccc(F)c45)ncc23)C1` (stereo not drawn) [Example 64, 4-(8-fluoro-7-(8-fluoronaphthalen-1-yl)-2-((hexahydro-1H-pyrrolizin-7a-yl)methoxy)pyrido[4,3-d]pyrimidin-4-yl)-6-methyl-1,4-oxazepan-6-ol], for which the IC50 on KRas G12V amounted to 1360 nM; against KRas G12S it was 1150 nM; at KRas G12C it was 1060 nM; on KRas G12A, 1300 nM; on KRas G13D, 1360 nM; against KRas G12D, 568 nM. The values for the half-inhibitory concentration (IC50) against KRas WT, on KRas Q61H and against KRas G12R were 997 nM, 1550 nM and 2550 nM, respectively.
Consider `Nc1ncccc1CNc1nc(OCC23CCCN2CCC3)nc2c(F)c(-c3cccc4cccc(F)c34)ncc12` [Example 70, N-((2-aminopyridin-3-yl)methyl)-8-fluoro-7-(8-fluoronaphthalen-1-yl)-2-((hexahydro-1H-pyrrolizin-7a-yl)methoxy)pyrido[4,3-d]pyrimidin-4-amine], for which the IC50 on KRas G12V was 397 nM; on KRas G12S it was 418 nM; against KRas G12C it was 224 nM; at KRas G12A, 403 nM; on KRas G13D, 11700 nM; at KRas G12D, 14100 nM. The half-inhibitory concentration (IC50) at KRas WT stood at 2860 nM; at KRas Q61H it was 10800 nM; against KRas G12R, 215 nM.
As to `O=C1CC2(CCN(c3nc(OCC45CCCN4CCC5)nc4c(F)c(-c5cccc6cccc(F)c56)ncc34)CC2)N1` [Example 77, 7-(8-fluoro-7-(8-fluoronaphthalen-1-yl)-2-((hexahydro-1H-pyrrolizin-7a-yl)methoxy)pyrido[4,3-d]pyrimidin-4-yl)-1,7-diazaspiro[3.5]nonan-2-one], the half-maximal inhibitory concentration (IC50) against KRas G12V is 1350 nM; on KRas G12S it was 1170 nM; on KRas G12C it was 1640 nM; at KRas G12A it was 1060 nM; at KRas G13D, 1210 nM; at KRas G12D, 12800 nM. The results for the IC50 on KRas WT, at KRas Q61H and on KRas G12R were 1410 nM, 1910 nM and 2200 nM, respectively.
With `Nc1cc2n(n1)CCCN(c1nc(OCC34CCCN3CCC4)nc3c(F)c(-c4cccc5cccc(F)c45)ncc13)C2` [Example 78, 5-(8-fluoro-7-(8-fluoronaphthalen-1-yl)-2-((hexahydro-1H-pyrrolizin-7a-yl)methoxy)pyrido[4,3-d]pyrimidin-4-yl)-5,6,7,8-tetrahydro-4H-pyrazolo[1,5-a][1,4]diazepin-2-amine], the IC50 against KRas G12V is 1530 nM; on KRas G12S, 1240 nM; on KRas G12C, 1260 nM; against KRas G12A it was 2200 nM; on KRas G13D, 3800 nM; at KRas G12D, 677 nM. For the same compound, the half-maximal inhibitory concentration (IC50) on KRas WT turned out to be 2680 nM; at KRas Q61H it was 3300 nM; at KRas G12R, 1760 nM.
As for `Fc1c(-c2cccc3cccc(F)c23)ncc2c(NCc3ccc4[nH]cnc4c3)nc(OCC34CCCN3CCC4)nc12` [Example 80, N-((1H-benzo[d]imidazol-5-yl)methyl)-8-fluoro-7-(8-fluoronaphthalen-1-yl)-2-((hexahydro-1H-pyrrolizin-7a-yl)methoxy)pyrido[4,3-d]pyrimidin-4-amine], the IC50 at KRas G12V came to 1590 nM; against KRas G12S, 2570 nM; against KRas G12C, 1250 nM; against KRas G12A, 1580 nM; on KRas G13D, 6310 nM; against KRas G12D, 29800 nM. For the same compound, the figures for the half-maximal inhibitory concentration (IC50) against KRas WT, at KRas Q61H and against KRas G12R were 6840 nM, 10700 nM and 1470 nM, respectively.
Consider `OC1CC2CC1CN(c1nc(OCC34CCCN3CCC4)nc3c(F)c(-c4cccc5cccc(F)c45)ncc13)C2` (stereo not drawn) [Example 81, 3-(8-fluoro-7-(8-fluoronaphthalen-1-yl)-2-((hexahydro-1H-pyrrolizin-7a-yl)methoxy)pyrido[4,3-d]pyrimidin 4-yl)-3-azabicyclo[3.2.1]octan-6-ol], for which the half-inhibitory concentration (IC50) against KRas G12V came out at 802 nM; at KRas G12S it was 531 nM; on KRas G12C it was 891 nM; against KRas G12A, 759 nM; on KRas G13D, 860 nM; on KRas G12D it was 3560 nM. Also, the IC50 against KRas WT was found to be 864 nM; at KRas Q61H, 1170 nM; on KRas G12R, 1040 nM.
As for `OCC1COCCN(c2nc(OCC34CCCN3CCC4)nc3c(F)c(-c4cccc5cccc(F)c45)ncc23)C1` (stereo not drawn) [Example 83, (4-(8-fluoro-7-(8-fluoronaphthalen-1-yl)-2-((hexahydro-1H-pyrrolizin-7a-yl)methoxy)pyrido[4,3-d]pyrimidin-4-yl)-1,4-oxazepan-6-yl)methanol], the IC50 worked out at 498 nM at KRas G12V; 703 nM against KRas G12S; 509 nM against KRas G12C; 735 nM on KRas G12A; 1890 nM on KRas G13D; 392 nM against KRas G12D. For the same compound, the half-inhibitory concentration (IC50) was 1200 nM at KRas WT, 1990 nM at KRas Q61H and 992 nM on KRas G12R.
As for `Fc1c(-c2cccc3cccc(F)c23)ncc2c(NCCCc3cc[nH]n3)nc(OCC34CCCN3CCC4)nc12` [Example 84, N-(3-(1H-pyrazol-3-yl)propyl)-8-fluoro-7-(8-fluoronaphthalen-1-yl)-2-((hexahydro-1H-pyrrolizin-7a-yl)methoxy)pyrido[4,3-d] pyrimidin-4-amine], the 50% inhibitory concentration (IC50) on KRas G12V was determined as 1860 nM; against KRas G12S, 2070 nM; against KRas G12C it was 863 nM; against KRas G12A, 1650 nM; on KRas G13D, 5070 nM; against KRas G12D, 12700 nM. For the same compound, the figures for the IC50 against KRas WT, on KRas Q61H and against KRas G12R were 4290 nM, 5860 nM and 2500 nM, respectively.
With `OCC12CC(Nc3nc(OCC45CCCN4CCC5)nc4c(F)c(-c5cccc6cccc(F)c56)ncc34)(C1)C2` [Example 85, (3-((8-fluoro-7-(8-fluoronaphthalen-1-yl)-2-((hexahydro-1H-pyrrolizin-7a-yl)methoxy)pyrido[4,3-d]pyrimidin-4-yl)amino)bicyclo[1.1.1]pentan-1-yl)methanol], the half-inhibitory concentration (IC50) on KRas G12V was found to be 3700 nM; at KRas G12S, 4640 nM; at KRas G12C, 2150 nM; at KRas G12A, 2850 nM; at KRas G13D it was 4660 nM; at KRas G12D, 44000 nM. For the same compound, the half-maximal inhibitory concentration (IC50) was 4520 nM at KRas WT, 10900 nM on KRas Q61H and 2120 nM on KRas G12R.
Regarding `NC(=O)C1CCCN(c2nc(OCC34CCCN3CCC4)nc3c(F)c(-c4cccc5cccc(F)c45)ncc23)C1` (stereo not drawn) [Example 86, 1-(8-fluoro-7-(8-fluoronaphthalen-1-yl)-2-((hexahydro-1H-pyrrolizin-7a-yl)methoxy)pyrido[4,3-d]pyrimidin-4-yl)piperidine-3-carboxamide], the IC50 was 3100 nM against KRas G12V; 2390 nM at KRas G12S; 3080 nM against KRas G12C; 2240 nM against KRas G12A; 3000 nM on KRas G13D; 6900 nM against KRas G12D. For the same compound, the IC50 against KRas WT came out at 2410 nM; on KRas Q61H it was 4780 nM; at KRas G12R, 8490 nM.
As to `N#CC1CCCN(c2nc(OCC34CCCN3CCC4)nc3c(F)c(-c4cccc5cccc(F)c45)ncc23)CC1` (stereo not drawn) [Example 87, 1-(8-fluoro-7-(8-fluoronaphthalen-1-yl)-2-((hexahydro-1H-pyrrolizin-7a-yl)methoxy)pyrido[4,3-d]pyrimidin-4-yl)azepane-4-carbonitrile], the IC50 came out at 3660 nM on KRas G12V; 10800 nM at KRas G12S; 5940 nM on KRas G12C; 7120 nM against KRas G12A; 5260 nM at KRas G13D; 3360 nM at KRas G12D. The IC50 on KRas WT is 6090 nM; at KRas Q61H, 9500 nM; against KRas G12R, 11900 nM.
Regarding `Cn1cc(CNc2nc(OCC34CCCN3CCC4)nc3c(F)c(-c4cccc5cccc(F)c45)ncc23)ccc1=O` [Example 88, 5-(((8-fluoro-7-(8-fluoronaphthalen-1-yl)-2-((hexahydro-1H-pyrrolizin-7a-yl)methoxy)pyrido[4,3-d]pyrimidin-4-yl)amino)methyl)-methylpyridin-2 (1H)-one], the IC50 worked out at 2180 nM at KRas G12V; 4240 nM against KRas G12S; 2510 nM on KRas G12C; 1820 nM on KRas G12A; 9310 nM at KRas G13D; 30700 nM at KRas G12D. Besides, the IC50 against KRas WT was found to be 7170 nM; on KRas Q61H, 14700 nM; against KRas G12R it was 4370 nM.
In the case of `O[C@@H]1C[C@H](O)CN(c2nc(OCC34CCCN3CCC4)nc3c(F)c(-c4cccc5cccc(F)c45)ncc23)C1` [Example 89, (3S,5R)-1-(8-fluoro-7-(8-fluoronaphthalen-1-yl)-2-((hexahydro-l H-pyrrolizin-7a-yl)methoxy)pyrido[4,3-d]pyrimidin-4-yl)piperidine-3,5-diol], the concentration for half-maximal inhibition (IC50) came out at 1020 nM against KRas G12V; 1550 nM against KRas G12S; 1060 nM at KRas G12C; 1250 nM at KRas G12A; 1810 nM at KRas G13D; 2280 nM on KRas G12D. The IC50 against KRas WT is 1400 nM; on KRas Q61H, 3270 nM; against KRas G12R it was 2600 nM.
